Reference: EP3839043A1, “SCREENING METHODS FOR COMPOUNDS MODULATING POLYAMINE TRANSPORT” (Katholieke Universiteit Leuven, priority 2019, dated 2021)
Counter-ions that a name gives are not always drawn.

What was measured:
[1] = test system: isolated mouse cortical neurons; test: TUNEL staining of SPM-treated primary neurons; format: cell-based; conditions: CA-074 10 µM; SPM 10 µM, 24 h; Atp13a2 knockdown neurons
Excerpt: Neuron isolation - Primary cortical neurons were derived from E16 FVB/N mice embryos. Pregnant mice were sacrificed on gestation day 16 by cervical dislocation. E16 mice pup brains were collected and placed in a dish containing calcium- and magnesium-free Hanks' Balanced Salt Solution (HBSS, Life Technologies, 14180-046) on ice. Both cerebral hemispheres were separated from the cerebellum. Meninges were removed from the cerebral hemispheres and the brain cortices dissected. Brain cortices were collected, washed twice and digested with 0.05% trypsin (Life Technologies, 25300-054, 10 min at 37°C). Trypsin reaction was terminated by the addition of 7 ml HBSS and 1 ml of horse serum. Cells were separated by pipetting and filtration through a cell strainer (40 µm, Falcon, 352340). Cells were centrifuged at 1,000 rpm for 5 min (4°C), the supernatant discarded and the pellet suspended in 5 ml Dulbecco's Modified Eagle Medium (DMEM; Sigma-Aldrich, D6546) containing GlutaMAX (Life Technologies, 31966-021) containing 5% horse serum (Life Technologies, 26050-088) and 20 mM glucose (Sigma-Aldrich, 8270). Primary cortical neurons were plated in 12 well plates, on cover slips coated with poly-D-lysine (Sigma-Aldrich, P6407). […]
TUNEL staining - TUNEL staining was assessed according to the manufacturer's protocol for the Click-iT Plus TUNEL assay (ThermoFisher, C10617). […]

Purified ATP13A2 = molecular target: T1, Purified ATP13A2 (Homo sapiens, UniProt Q9NQ11); test: ATPase assay (ADP-Glo Max), purified ATP13A2 from yeast expression system; format: biochemical; set-up: we obtained >95% pure, full length and solubilized ATP13A2; biotin acceptor domain (BAD) tag behind a thrombin cleavage site (C, cleaved yes); made in house; host or cells: S. cerevisiae W303-1B/Gal4-ΔPep4, pYeDP60 vector; conditions: for lipid concentration of maximal effect on ATPase activity / ATP13A2 activity, effect of regulatory lipids: purified ATP13A2; for lipid concentration of maximal effect on ATPase activity: 2 mM SPM; for ATP13A2 activity, effect of regulatory lipids: only in the presence of SPM
T1 sequence (Q9NQ11 1-1175 isoform Q9NQ11-3): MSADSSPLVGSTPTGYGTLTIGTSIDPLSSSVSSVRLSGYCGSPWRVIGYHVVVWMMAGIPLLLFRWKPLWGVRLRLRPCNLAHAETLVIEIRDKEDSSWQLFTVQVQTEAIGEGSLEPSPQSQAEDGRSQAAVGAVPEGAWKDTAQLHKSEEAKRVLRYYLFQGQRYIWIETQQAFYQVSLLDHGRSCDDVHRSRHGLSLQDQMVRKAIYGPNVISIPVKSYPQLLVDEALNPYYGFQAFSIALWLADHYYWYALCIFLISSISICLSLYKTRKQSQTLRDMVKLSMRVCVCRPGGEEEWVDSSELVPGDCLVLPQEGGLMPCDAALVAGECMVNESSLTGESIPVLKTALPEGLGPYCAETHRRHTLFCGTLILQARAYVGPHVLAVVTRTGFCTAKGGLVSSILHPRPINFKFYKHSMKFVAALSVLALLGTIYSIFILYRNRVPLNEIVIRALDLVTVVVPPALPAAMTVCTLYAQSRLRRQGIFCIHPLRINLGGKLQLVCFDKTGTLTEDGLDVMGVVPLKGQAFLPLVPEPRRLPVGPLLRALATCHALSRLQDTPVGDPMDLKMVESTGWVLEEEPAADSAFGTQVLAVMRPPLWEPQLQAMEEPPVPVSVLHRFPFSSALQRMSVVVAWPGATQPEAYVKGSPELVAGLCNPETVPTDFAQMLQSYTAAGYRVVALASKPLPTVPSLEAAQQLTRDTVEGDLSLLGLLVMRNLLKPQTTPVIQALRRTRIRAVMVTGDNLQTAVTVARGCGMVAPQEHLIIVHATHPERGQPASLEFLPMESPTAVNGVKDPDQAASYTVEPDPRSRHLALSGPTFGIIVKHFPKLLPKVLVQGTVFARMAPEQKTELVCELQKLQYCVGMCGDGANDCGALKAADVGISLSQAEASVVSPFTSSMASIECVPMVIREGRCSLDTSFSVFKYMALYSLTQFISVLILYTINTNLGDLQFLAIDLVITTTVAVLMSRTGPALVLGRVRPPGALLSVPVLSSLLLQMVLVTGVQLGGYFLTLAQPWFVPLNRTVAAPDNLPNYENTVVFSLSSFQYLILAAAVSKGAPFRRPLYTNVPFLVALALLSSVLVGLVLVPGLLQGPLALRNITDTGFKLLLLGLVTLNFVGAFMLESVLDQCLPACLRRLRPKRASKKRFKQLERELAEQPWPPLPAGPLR
Description: (§1) ATPase assay - The ATPase activity of ATP13A2 was assessed using a commercially available luminescence assay (ADP-Glo Max assay, Promega) that monitors the production of ADP via luciferase activity. The reactions were performed for 30 min (37°C) in a final volume of 25 µl. The assay reaction mixture contained 50 mM MOPS-KOH (pH 7), 100 mM KCI, 11 mM MgCl2, 1 mM DTT, 195 µM DDM, various concentrations of the indicated compound, and either microsomes (5 µg) harvested from SH-SY5Y cells overexpressing ATP13A2 (WT or mutants) or purified ATP13A2 (0.5 µg). When purified ATP13A2 was used, we included 125 µM PA, 125 µM PI(3,5)P2 and 19.5 µM DDM in the reaction buffer. The assay was started by the addition of 5 mM ATP and was terminated by adding 25 µl of ADP-Glo Reagent. The 96-well plate was then incubated for 40 min at room temperature, followed by the addition of 50 µl of ADP-Glo Max Detection Reagent. After 40 min, luminescence was detected using a FlexStation 3.0 system (Molecular Devices). Dose-response curves and n/Km/Vmax values were calculated using GraphPad Prism Software (GraphPad Software Inc.).
Transformation and overexpression of ATP13A2 in yeast - The S. cerevisiae W303-1B/Gal4-ΔPep4 strain (leu2-3, his3-11,15, trp1-1::TRP1-GAL10-GAL4, ura3-1, ade2-1, canr, cir^+, ΔPep4 MAT; a kind gift from Rosa Lopez Marques) was transformed according to the lithium acetate/single-stranded carrier DNA/polyethylene glycol method [Gietz, R. D. & Woods, R. A. Methods Enzymol 350, 87-96 (2002)], with the pYeDP60 vector containing a yeast codon optimized version of human ATP13A2 variant 2 (WT or the catalytically dead E343A mutant) followed by a thrombin cleavage site and a C-terminal BAD tag [Azouaoui, H. et al. PLoS One 9, e112176, (2014); Jidenko, M. et al.Protein Expr Purif 48, 32-42, (2006)]. The transformation mixture was grown for 48 h at 30°C on minimal medium agar plates lacking uracil (0.54% yeast nitrogen base without amino acids, 0.12% yeast drop-out mix without Ura, 2% glucose, and 2% agar) to select yeast colonies that acquired the plasmid. These colonies were then cultured in 20 ml of MM-Ura medium (0.67% yeast nitrogen base without amino acids, 0.19% yeast drop-out mix without Ura, and 2% glucose) and grown for 24 h at 28°C and 200 rpm. The MM-Ura yeast pre-culture was used to inoculate 100 ml of MM-Ura medium to a final OD600 of 0.2, followed by a 12 h incubation period (28°C and 200 rpm). The second pre-culture was inoculated into 4.5 l of YPGE2X medium (2% yeast extract, 2% bactopeptone, 1% glucose, and 2.7% ethanol) to a final OD600 of 0.05 and grown for 36 h (28°C and 175 rpm). ATP13A2-BAD expression was induced with 2% galactose, followed by a second galactose induction 12 h later. After another 12 h, the pellet was collected (1,000 x g; 10 min; 4°C).
Yeast membrane preparation - Yeast cells were broken with glass beads using a BeadBeater (BioSpec products). The lysis buffer contained 50 mM Tris-HCI (pH 7.5), 1 mM EDTA, 0.6 M sorbitol, 1 mM phenylmethylsulfonyl fluoride and SigmaFast protease inhibitor. To remove cell debris and nuclei, the crude extract was centrifuged at 2,000 x g for 20 min (4°C). The supernatant (S1) was centrifuged at 20,000 x g for 20 min (4°C) to pellet the heavy membrane fraction (P2), and the resulting supernatant (S2) was further centrifuged at 200,000 x g for 1 h (4°C). The resulting pellet (i.e., the light membrane fraction, P3) was resuspended in 20 mM HEPES-Tris (pH 7.4), 0.3 M sucrose and 0.1 mM CaCl2. The total protein concentration was determined using a Bradford assay (B6916, Sigma-Aldrich).
ATP13A2-BAD purification - The method used to purify ATP13A2 was based on the purification of overexpressed Drs2p from yeast membranes. Yeast P3 membranes were diluted to 5 mg of total protein/ml in SSR buffer (50 mM MOPS-KOH (pH 7), 100 mM KCI, 20% glycerol, 5 mM MgCl2, 1 mM DTT, and SigmaFast protease inhibitor cocktail) and solubilized using DDM, with a detergent to protein ratio of 1:1.

SH-SY5Y cells = test: MUH cytotoxicity assay; format: cell-based, human; conditions: increasing concentrations, 24 h
Description: MUH cytotoxicity assay - SH-SY5Y cells were seeded in 96-well plates (1 X 10^4 cells per well) and allowed to adhere overnight. The cells were subsequently treated with increasing doses of the indicated compounds for 24-48 h. Following exposure, the cells were washed with PBS and stained with 300 µg/ml MUH (prepared in DMSO, dissolved in PBS) for 30 min at 37°C.

Microsomal ATP13A2 = molecular target: T2, Microsomal ATP13A2 (Homo sapiens, UniProt Q9NQ11); test: ATPase assay (ADP-Glo Max), solubilized microsomes of SH-SY5Y cells overexpressing ATP13A2 WT; format: biochemical; conditions: indicated doses; microsomes 5 µg
T2 construct: expressed in transfected cells; host or cells: SH-SY5Y human neuroblastoma cells, lentiviral transduction; microsomes solubilised with DDM
T2 sequence (Q9NQ11 1-1175 isoform Q9NQ11-3): T1 sequence (Q9NQ11 1-1175 isoform Q9NQ11-3)
Description: Membrane fractionation - Transduced SH-SY5Y cells were seeded in […] at a density of 6 x 10^6 cells per plate. 24 h later, the cells were harvested following trypsinization and brief centrifugation (300 x g, 5 min). Subcellular fractionation was performed by differential centrifugation. The microsomal protein concentration was measured using the bicinchoninic acid assay (Thermo Fischer Scientific, Pierce) according to the manufacturer's instructions.
as §1, with “The assay reaction mixture contained 50 mM MOPS-KOH (pH 7), 100 mM KCI, 11 mM MgCl2, 1 mM DTT, 195 µM DDM, various concentrations of the indicated compound, and either microsomes (5 µg) harvested from SH-SY5Y cells overexpressing ATP13A2 (WT or mutants) or purified ATP13A2 (0.5 µg). When purified ATP13A2 was used, we included 125 µM PA, 125 µM PI(3,5)P2 and 19.5 µM DDM in the reaction buffer.” left out

Row | Compound | lipid concentration of maximal effect on ATPase activity (Purified ATP13A2) | ATP13A2 activity, effect of regulatory lipids (Purified ATP13A2) | further results
1 | CCCNC(=O)[C@H]1O[C@@H]1C(=O)N[C@H](C(=O)N1CCC[C@H]1C(=O)O)[C@@H](C)CC [CA-074] | – | – | SPM-induced neuronal death (TUNEL positivity) [1]: rescues SPM-induced neuronal death
2 | CCCCCCCC/C=C\CCCCCCCC(=O)OC[C@H](COP(=O)(O)O)OC(=O)CCCCCCC/C=C\CCCCCCCC [PA, 1,2-dioleoyl-sn-glycero-3-phosphate (sodium salt)] | 125 µM | strongly stimulated | –
3 | CCCCCCCC/C=C\CCCCCCCC(=O)OC[C@H](COP(=O)(O)O[C@@H]1[C@H](O)[C@H](OP(=O)(O)O)[C@@H](O)[C@H](OP(=O)(O)O)[C@H]1O)OC(=O)CCCCCCC/C=C\CCCCCCCC [PI(3,5)P2, 1,2-dioleoyl-sn-glycero-3-phospho-(1'-myo-inositol-3',5'-bisphosphate) (ammonium salt)] | 125 µM | strongly stimulated | –
4 | [Na+].[Na+].[Na+].[O]=[V]([O-])([O-])[O-] [orthovanadate, sodium orthovanadate] | – | – | SPM-induced ATPase activity, inhibition (Purified ATP13A2; 1 mM SPM, 0.25 mM orthovanadate, 125 µM PA/PI(3,5)P2): blocked
5 | Cl.Cl.NCCCCN [putrescine, putrescine dihydrochloride] | – | – | viability of control cells (SH-SY5Y cells): not cytotoxic; ATPase activity of ATP13A2, dose-response (Microsomal ATP13A2): did not induce ATP13A2 activity
